Biological target: T1, MpHPPR (hydroxyphenylpyruvate reductase from Mentha x piperita) (Mentha x piperita, UniProt A0A2R4SEK0)
T1 construct: codon-optimised synthetic gene in pET15b, N-terminal His-tag, expressed in E. coli BL21(DE3) Star, Ni-NTA purified, dimer
T1 sequence (A0A2R4SEK0 1-313): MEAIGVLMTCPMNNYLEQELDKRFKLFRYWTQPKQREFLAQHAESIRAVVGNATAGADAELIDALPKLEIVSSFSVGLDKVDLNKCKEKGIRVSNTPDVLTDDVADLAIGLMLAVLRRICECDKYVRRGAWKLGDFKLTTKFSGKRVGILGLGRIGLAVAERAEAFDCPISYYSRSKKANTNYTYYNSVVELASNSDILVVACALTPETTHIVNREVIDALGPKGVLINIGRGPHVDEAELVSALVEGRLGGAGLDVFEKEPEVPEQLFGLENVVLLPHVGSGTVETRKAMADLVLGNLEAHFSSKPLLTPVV
Test: HPLC product quantification
Assay type: biochemical
Details: pH 7.0, 100 mM potassium phosphate, 37 °C, 10 mM NAD(P)H, 5 mM ß-mercaptoethanol

Row | Structure (SMILES) | KM
1 | O=C(O)C(=O)Cc1ccc(O)cc1 [HPPA, 3-(4-Hydroxyphenyl)−2-oxopropanoic acid] | Specific activity and KM for phenylpyruvic acid (PPA), 4-hydroxyphenylpyruvic acid (HPPA)
2 | O=C(O)C(=O)Cc1ccccc1 [PPA, phenylpyruvic acid] | Specific activity and KM for phenylpyruvic acid (PPA)
